# According to publication PMC6261997, “Synergistic enzymatic and bioorthogonal reactions for selective prodrug activation in living systems” (Nature Communications, 2018):
# Experiments:
# [1] = Self-assembly and hydrogelation on addition of alkaline phosphatase (ALP); type: physicochemical
# Experimental: The synthesis of the assembly precursor (NapK(Tz)YpF, 2, Fig. 2a) was straightforward (see Supplementary Methods for a detailed protocol). Because KYF was determined to be an excellent self-assembly motif in a tri-peptide census survey, we constructed our assembling molecules based on this sequence. The conjugation of a strong π–π stacking moiety, namely, a naphthalene group, to the N terminus may further enhance the self-assembly potential of this molecule. Phosphorylation on tyrosine (Y) enabled the responsiveness of this motif to phosphatase. All of these components were sequentially conjugated via typical Fmoc-based solid-phase peptide synthesis (SPPS) to yield NapKYpF (1). The capability of self-assembly and hydrogelation of 1 was confirmed by the addition of 10 U mL^−1 alkaline phosphatase (ALP) into a solution of 1 (Supplementary Fig. 1). The dephosphorylated product of 1 formed transparent hydrogels with a network of uniform nanofibres (Supplementary Fig. 2), and the critical hydrogelation concentration was 1.0 mg mL^−1. The ε-amine of Lys on 1 was conjugated with the Tz derivative Tz-COOH (2-(4-(6-methyl-1,2,4,5-tetrazin-3-yl)phenyl) acetic acid) via an NHS-mediated ester–amide exchange reaction to yield 2. […] Upon the addition of ALP (10 U mL^−1) into the solution of 2, a transparent purple hydrogel was formed within 1 h (Fig. 2b inset), and the critical hydrogelation concentration was 1.0 mg mL^−1 (Supplementary Fig. 3). Similar to the formation of a typical hydrogel, investigation by transmission electron microscopy (TEM) confirmed the existence of numerous uniform nanofibres, each with a diameter of approximately 12 nm, which was close to that of hydrogel 1 (Fig. 2b).
# HUVECs = test: Intracellular Tz accumulation by fluorescence liberation from TCO-CMR, HUVECs; type: cell-based; conditions: even in the presence of 500 μM 2
# Experimental: Next, we tested the intracellular accumulation of Tz via EISA in an attempt to differentiate cancer cells from normal cells. First, we investigated the accumulation of Tz in HeLa cells and HUVECs over time via fluorescence liberation from TCO-CMR (Fig. 3a). Each group of cells was pre-incubated with different concentrations of 2 ranging from 100 to 500 μM for 1, 2, 4, 6, 15 or 24 h. The cells were then washed with PBS thoroughly before the addition of an excessive amount of TCO-CMR (100 μL, 50 μM), and the reaction of TCO-CMR with the intracellular accumulated Tz was allowed to proceed for up to 24 h (Supplementary Fig. 8). In this experimental setting, the total liberated fluorescence was proportional to the amount of 3 accumulated inside the cells. […] Therefore, the optimized concentration of 2 (e.g. 500 μM) and incubation time (e.g. 6 h) were selected to differentiate between cancer and normal cells according to liberated fluorescence intensity (Fig. 3c). […]
# All cells were purchased from the National Infrastructure of Cell Line Resource (Beijing, China). […] After incubation for different durations (1–24 h), the cells were rinsed with PBS, and then 100 μL of 50 μM TCO-CMR (dissolved in PBS) was added for real-time detection of the fluorescence intensity of coumarin in a plate reader (Perkin Elmer).
# [2] = Stability in human serum (UPLC-MS/MS); type: in vitro ADME; conditions: 10 μM in human serum
# Experimental: (Sigma, St. Louis, MO). Then, 9 µL Na125I (2.4 mCi) (Beijing Atom High Tech, Beijing, China) was added and the mixture was kept at room temperature for 1 h until the labeling ratio reached to more than 95%. For SPECT/CT imaging, a mixture of 50 mg kg-1 2 and 0.875 mg kg-1 125I labelled 2 (700 µCi) were intravenously administrated to investigate the distribution of 2/3 and 0.875 mg kg-1 125I labelled 2 (700 µCi) was administrated as a control. After anesthetization with 2% isoflurane in oxygen, SPECT and helical CT scans of the mice were performed at 2, 5, 7 and 25 h on a NanoScan SPECT/CT imaging system (Mediso, Budapest, Hungary).
# UPLC-MS/MS analyses: UPLC-MS/MS metabolomic analyses were performed using a Triple Quadrupole Liquid Chromatograph Mass Spectrometer (LCMS 8050, Shimadzu) in multiple reaction-monitoring mode (MRM). Data acquisition and processing were performed using LabSolutions version 5 software. Measurements were carried out at 40°C. […]
# Plasmatic stability of compound 2 and TCO-Dox: To evaluate the stability of 2 and TCO-Dox under physiologically relevant conditions, compounds were incubated in human serum and the amount of the remaining intact compound (the corresponding dephosphorylated 3 was detected as well) was determined by UPLC-MS/MS. […] After centrifugation at 1559 g for 7 min and filtration, 2 µL of the supernatant was analyzed by UPLC-MS/MS (n=5).
compound,measurement,setting,value
"Cc1nnc(-c2ccc(CC(=O)NCCCCC(NC(=O)Cc3ccc4ccccc4c3)C(=O)NC(Cc3ccc(OP(=O)(O)O)cc3)C(=O)NC(Cc3ccccc3)C(=O)O)cc2)nn1 (stereo not shown) [compound 2, NapK(Tz)YpF]",time to formation of hydrogel,[1]; ALP 10 U mL^−1,≤ 1 h
same,critical hydrogelation concentration,[1]; after addition of 10 U mL^−1 ALP (dephosphorylated product),1.0 mg/mL
same,liberated fluorescence in HUVECs,HUVECs,only a negligible amount of fluorescence
same,stability in serum/plasma,[2],partially transformed to the dephosphorylated product 3 in plasma
